Blank lines part the entries; values can stand above or below the compound they belong to.
Experiments:
[1] = Pharmacokinetics in rat after oral suspension; format: in vivo, rats; settings: for Cmax / AUC(0-t): plasma; for AUC(0-t): read-out: AUC0-24 h
Text: Compound 365 was formulated similarly to Form C, suspension in 0.5% methylcellulose, 0.1% Tween 80 in purified water.

[2] = Aqueous solubility of solid forms (Table 2); format: physicochemical
[3] = DVS moisture sorption at 25° C.; format: physicochemical; settings: for Post DVS changes: after DVS, PLM, XRD, DSC, TGA; for DVS final sample wt lower than starting wt: after one full sorption cycle
Procedure: Moisture sorption profiles were generated isothermally at 25° C. using a Hiden IGAsorp moisture sorption analyzer. Samples were dried on the instrument under inert nitrogen at 40° C. for 60 min. Following drying the samples moisture sorption was determined by performing one full cycle of weight measurements at 0, 10, 20, 30, 40, 50, 60, 70, 80, 90 and 95% RH, with exposure time at each humidity set point dependent upon a minimum of 99% confidence in the F1 fit model or 15 min, with a maximum timeout of 120 min. The moisture sorption isotherms were plotted as a function of weight change (relative weight % of the dried starting weight) and % RH.

[4] = Pharmacokinetics in dog after oral suspension; format: in vivo; settings: dogs (both genders), twice-daily oral; for Cmax / AUC(0-t): both sexes, dog, plasma, suspension in 0.5% methylcellulose; for AUC(0-t): read-out: AUC0-24 h
Procedure: Doses levels ranging from 50 mg/kg to 500 mg/kg were permitted to achieve pharmacological relevant systemic exposures.

[5] = Relative polymorph stability (statement); format: physicochemical; settings: compared with the other forms
[6] = oral, rat, Table 8, formulated similarly to Form C (suspension in 0.5% methylcellulose, 0.1% Tween 80), 100 mg/kg/day
[7] = oral, rat, Table 8, formulated similarly to Form C (suspension in 0.5% methylcellulose, 0.1% Tween 80), 300 mg/kg/day
[8] = both sexes, rat, rats (both genders), once-daily oral, suspension in 0.5% methylcellulose, 0.1% Tween 80, 100 mg/kg/day
[9] = both sexes, rat, rats (both genders), once-daily oral, suspension in 0.5% methylcellulose, 0.1% Tween 80, 300 mg/kg/day
[10] = both sexes, rat, rats (both genders), once-daily oral, suspension in 0.5% methylcellulose, 0.1% Tween 80, 600 mg/kg/day

- Cmax [1, 6]: 7160 ng/mL
- AUC(0-t) [1, 6]: 24200 ng·h/mL
- Cmax [1, 7]: 9810 ng/mL
- AUC(0-t) [1, 7]: 78400 ng·h/mL
- Cmax and AUC compared with Form C ([1]; rat, at both 100 and 300 mpk): slightly superior
- Aqueous Solubility ([2]; pH 1.2): pH 1.2: ≥921 ug/mL
- Aqueous Solubility ([2]; pH 6.5): pH 6.5: 18 ug/mL
- Aqueous Solubility ([2]; pH 7.4): pH 7.4: 140 ug/mL
- Post DVS changes [3]: Amorphous
- DVS final sample wt lower than starting wt [3]: same wt ~1%
- DVS wt gain ([3]; at 95% RH, 25° C.): 7.4% wt gain
Compound: COc1cc(C)[nH]c(=O)c1CNC(=O)c1c(C)n([C@H](C)C2CCN(CC(F)(F)F)CC2)c2ccccc12 [Amorphous, (R)—N-((4-methoxy-6-methyl-2-oxo-1,2-dihydropyridin-3-yl)methyl)-2-methyl-1-(1-(1-(2,2,2-trifluoroethyl)piperidin-4-yl)ethyl)-1H-indole-3-carboxamide]

- solubility ([2]; aqueous medium at pH 1.2 (buffer not named), pH 1.2, simulated gastric fluid, pH 1.2): ≥ 961 µg/mL
- Aqueous Solubility ([2]; pH 6.5): pH 6.5: 31 ug/mL
- Aqueous Solubility ([2]; pH 7.4): pH 7.4: 28 ug/mL
- Post DVS changes [3]: 1% reduction
- DVS final sample wt lower than starting wt [3]: wt ~0.8 lower %
- DVS wt gain ([3]; at 80% RH, 25° C.): 2% wt gain at
- DVS wt gain ([3]; at 95% RH, 25° C.): 5.3 wt gain at % wt
Compound: COc1cc(C)[nH]c(=O)c1CNC(=O)c1c(C)n([C@H](C)C2CCN(CC(F)(F)F)CC2)c2ccccc12 [Form A, (R)—N-((4-methoxy-6-methyl-2-oxo-1,2-dihydropyridin-3-yl)methyl)-2-methyl-1-(1-(1-(2,2,2-trifluoroethyl)piperidin-4-yl)ethyl)-1H-indole-3-carboxamide]

- Aqueous Solubility ([2]; pH 1.2): pH 1.2: ≥970 ug/mL
- Aqueous Solubility ([2]; pH 6.5): pH 6.5: 120 ug/mL
- Aqueous Solubility ([2]; pH 7.4): pH 7.4: 112 ug/mL
- Post DVS changes [3]: No significant
- DVS wt gain ([3]; at 95% RH, 25° C.): 7.2% wt gain
Compound: COc1cc(C)[nH]c(=O)c1CNC(=O)c1c(C)n([C@H](C)C2CCN(CC(F)(F)F)CC2)c2ccccc12 [Form B, (R)—N-((4-methoxy-6-methyl-2-oxo-1,2-dihydropyridin-3-yl)methyl)-2-methyl-1-(1-(1-(2,2,2-trifluoroethyl)piperidin-4-yl)ethyl)-1H-indole-3-carboxamide]

- Cmax [1, 8]: 6140 ng/mL
- AUC(0-t) [1, 8]: 19600 ng·h/mL
- Cmax [1, 9]: 12800 ng/mL
- AUC(0-t) [1, 9]: 86400 ng·h/mL
- Cmax [1, 10]: 56800 ng/mL
- AUC(0-t) [1, 10]: 128000 ng·h/mL
- systemic exposure AUC(0-24), dependence on dose ([1]; rats (both genders), once-daily oral, between 100 and 600 mg/kg): increased dose-proportionally
- Cmax ([4]; 0.1% Tween 80, 50 mg/kg BID): 6600 ng/mL
- AUC(0-t) ([4]; 0.1% Tween 80, 50 mg/kg BID): 42200 ng·h/mL
- Cmax ([4]; 0.1% Tween 80, 150 mg/kg BID): 21300 ng/mL
- AUC(0-t) ([4]; 0.1% Tween 80, 150 mg/kg BID): 176000 ng·h/mL
- Cmax ([4]; 0.1% Tween 80, 500 mg/kg BID): 34200 ng/mL
- AUC(0-t) ([4]; 0.1% Tween 80, 500 mg/kg BID): 378000 ng·h/mL
- systemic exposure AUC(0-24), dependence on dose ([4]; between 50 and 500 mg/kg BID): increased mostly dose-proportionally
- Aqueous Solubility ([2]; pH 1.2): pH 1.2: ≥913 ug/mL
- Aqueous Solubility ([2]; pH 6.5): pH 6.5: 14 ug/mL
- Aqueous Solubility ([2]; pH 7.4): pH 7.4: 9 ug/mL
- DVS hygroscopicity ([3]; 25° C.): Non-
- Post DVS changes [3]: No significant
- DVS wt gain ([3]; at 95% RH, 25° C.): ≤ 2.3% wt
- polymorph stability [5]: the most stable polymorph
Compound: COc1cc(C)[nH]c(=O)c1CNC(=O)c1c(C)n([C@H](C)C2CCN(CC(F)(F)F)CC2)c2ccccc12 [Form C, (R)—N-((4-methoxy-6-methyl-2-oxo-1,2-dihydropyridin-3-yl)methyl)-2-methyl-1-(1-(1-(2,2,2-trifluoroethyl)piperidin-4-yl)ethyl)-1H-indole-3-carboxamide]
